Conditions in all cases: sugar 1 mg/ml
The target in test [1] is T1, Dectin-1 (Homo sapiens, UniProt Q9BXN2).
T1 construct: The extracellular domains of lectin receptors, TREMs and TLTs were cloned by the reverse-transcriptase polymerase chain reaction (RT-PCR); made in house; host or cells: 293-F (FreeStyle 293) cells
T1 sequence (Q9BXN2 66-247 limits assumed): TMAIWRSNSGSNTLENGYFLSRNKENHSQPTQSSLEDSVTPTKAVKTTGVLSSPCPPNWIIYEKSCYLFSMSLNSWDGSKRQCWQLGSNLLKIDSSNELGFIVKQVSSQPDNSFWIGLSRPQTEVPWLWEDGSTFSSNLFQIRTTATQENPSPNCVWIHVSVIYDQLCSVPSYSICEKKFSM
Description: Sugar competition EIA, Fc.Dectin-1 binding to GLPS-F3. How it is done: (§1) The interaction between GLPS-F3 and receptor.Fc was then tested. Unbiotinylated GLPS-F3 was immobilized at 100 ng/well as described above, and 100 μL receptor.Fc fusion protein (1 μg/ml in 2 mM MgCl2/2 mM CaCl2/1% BSA/TBST) was added into each well and incubated for 1 hour at room temperature. After washing with TBST, wells were incubated with peroxidase-conjugated goat anti-human IgG Ab (1:5000 dilution, Jackson ImmunoResearch Laboratories) in blocking buffer at room temperature for 30 min. Wells were incubated with 100 μL TMB substrate for 15 min after TBST washing and read at 450 nm in a Fusion plate reader (Perkin Elmer). The results were normalized with respect to Fc.Dectin-1 binding (Dectin-1 is a known lectin receptor that binds to β-1,3-glucan which is the backbone found in GLPS-F3). FIG. 6B depicts in graphical form the affinity of each receptor for GLPS-F3 relative to Dectin-1. […] There was also weaker but positive GLPS-F3 binding ability (25-50% binding intensity compared to Fc.dectin-1) found in Fc.NKG2D, Fc.MINCLE, Fc.mKCR, DCAL1.Fc, DEC205.Fc, Endo180.Fc and NKp30(NCR3).Fc.
(§2) To understand the interaction of GLPS-F3 with specific innate immunity receptors, the polysaccharides mannan and β-glucan and the monosaccharides D-mannose (Man), D-glucose (Glc), N-acetyl-glucosamine (GlcNAc), D-galactose (Gal), N-acetyl-galactosamine (GalNAc), L-fucose (Fuc) and sialic acid, were used in a competition assay. […] The assays were carried out as in Example 9, with the addition of 1 mg/ml of each polysaccharide or monosaccharide.

For test [2], the target named is T2, Langerin (Homo sapiens, UniProt Q9UJ71).
T2 construct: The extracellular domains of lectin receptors, TREMs and TLTs were cloned by the reverse-transcriptase polymerase chain reaction (RT-PCR); made in house; host or cells: 293-F (FreeStyle 293) cells
T2 sequence (Q9UJ71 65-328 limits assumed): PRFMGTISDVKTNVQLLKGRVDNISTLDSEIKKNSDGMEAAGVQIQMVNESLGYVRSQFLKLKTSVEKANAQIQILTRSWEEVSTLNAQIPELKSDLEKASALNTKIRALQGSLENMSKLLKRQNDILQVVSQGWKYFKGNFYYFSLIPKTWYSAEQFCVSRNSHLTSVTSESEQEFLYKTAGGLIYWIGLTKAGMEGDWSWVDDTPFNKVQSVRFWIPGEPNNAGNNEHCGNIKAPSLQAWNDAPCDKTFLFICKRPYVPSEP
Description: Sugar competition EIA, Fc.Langerin binding to GLPS-F3.

In test [3] the target is T3, DC-SIGN (Homo sapiens, UniProt Q9NNX6).
T3 construct: The extracellular domains of lectin receptors, TREMs and TLTs were cloned by the reverse-transcriptase polymerase chain reaction (RT-PCR); made in house; host or cells: 293-F (FreeStyle 293) cells
T3 sequence (Q9NNX6 59-404 limits assumed): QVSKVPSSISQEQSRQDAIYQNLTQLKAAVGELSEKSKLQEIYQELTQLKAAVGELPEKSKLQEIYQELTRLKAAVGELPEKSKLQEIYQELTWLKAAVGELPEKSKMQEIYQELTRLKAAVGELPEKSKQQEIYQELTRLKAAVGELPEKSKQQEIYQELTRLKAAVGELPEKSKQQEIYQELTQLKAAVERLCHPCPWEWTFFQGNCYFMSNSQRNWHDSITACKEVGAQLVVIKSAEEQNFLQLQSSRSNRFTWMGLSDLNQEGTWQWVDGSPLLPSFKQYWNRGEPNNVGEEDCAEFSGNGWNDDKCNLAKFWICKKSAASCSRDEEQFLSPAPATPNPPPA
Nature of the test: Sugar competition EIA, Fc.DC-SIGN binding to GLPS-F3.

The target of test [4] is T4, TLR4.Fc (Homo sapiens, UniProt O00206).
T4 construct: The extracellular domains of several innate immunity receptors from immune cells were cloned by reverse-transcription polymerase chain reaction (RT-PCR); made in house; host or cells: 293-F (FreeStyle 293) cells
T4 sequence (O00206 24-631 limits assumed): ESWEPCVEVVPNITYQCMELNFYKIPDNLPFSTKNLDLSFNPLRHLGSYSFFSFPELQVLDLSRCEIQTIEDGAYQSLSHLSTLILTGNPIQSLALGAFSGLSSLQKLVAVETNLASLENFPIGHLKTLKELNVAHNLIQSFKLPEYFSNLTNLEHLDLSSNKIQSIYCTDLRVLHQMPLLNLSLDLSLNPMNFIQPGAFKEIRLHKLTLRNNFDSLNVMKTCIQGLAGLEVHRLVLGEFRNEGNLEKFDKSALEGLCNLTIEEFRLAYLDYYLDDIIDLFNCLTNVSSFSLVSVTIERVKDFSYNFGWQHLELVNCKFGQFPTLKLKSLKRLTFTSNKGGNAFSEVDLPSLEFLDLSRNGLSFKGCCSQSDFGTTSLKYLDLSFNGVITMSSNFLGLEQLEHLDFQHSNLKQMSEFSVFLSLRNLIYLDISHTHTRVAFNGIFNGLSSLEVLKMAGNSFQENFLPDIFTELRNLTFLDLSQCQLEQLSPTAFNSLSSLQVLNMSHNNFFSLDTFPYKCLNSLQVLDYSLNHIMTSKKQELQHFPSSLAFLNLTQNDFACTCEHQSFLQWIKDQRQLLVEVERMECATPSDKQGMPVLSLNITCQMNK
Description: Sugar competition EIA, TLR4.Fc binding to GLPS-F3.

Test [5] deals with T5, MMR.Fc (Homo sapiens, UniProt P22897).
T5 construct: The extracellular domains of lectin receptors, TREMs and TLTs were cloned by the reverse-transcriptase polymerase chain reaction (RT-PCR); made in house; host or cells: 293-F (FreeStyle 293) cells
T5 sequence (P22897 19-1389 limits assumed): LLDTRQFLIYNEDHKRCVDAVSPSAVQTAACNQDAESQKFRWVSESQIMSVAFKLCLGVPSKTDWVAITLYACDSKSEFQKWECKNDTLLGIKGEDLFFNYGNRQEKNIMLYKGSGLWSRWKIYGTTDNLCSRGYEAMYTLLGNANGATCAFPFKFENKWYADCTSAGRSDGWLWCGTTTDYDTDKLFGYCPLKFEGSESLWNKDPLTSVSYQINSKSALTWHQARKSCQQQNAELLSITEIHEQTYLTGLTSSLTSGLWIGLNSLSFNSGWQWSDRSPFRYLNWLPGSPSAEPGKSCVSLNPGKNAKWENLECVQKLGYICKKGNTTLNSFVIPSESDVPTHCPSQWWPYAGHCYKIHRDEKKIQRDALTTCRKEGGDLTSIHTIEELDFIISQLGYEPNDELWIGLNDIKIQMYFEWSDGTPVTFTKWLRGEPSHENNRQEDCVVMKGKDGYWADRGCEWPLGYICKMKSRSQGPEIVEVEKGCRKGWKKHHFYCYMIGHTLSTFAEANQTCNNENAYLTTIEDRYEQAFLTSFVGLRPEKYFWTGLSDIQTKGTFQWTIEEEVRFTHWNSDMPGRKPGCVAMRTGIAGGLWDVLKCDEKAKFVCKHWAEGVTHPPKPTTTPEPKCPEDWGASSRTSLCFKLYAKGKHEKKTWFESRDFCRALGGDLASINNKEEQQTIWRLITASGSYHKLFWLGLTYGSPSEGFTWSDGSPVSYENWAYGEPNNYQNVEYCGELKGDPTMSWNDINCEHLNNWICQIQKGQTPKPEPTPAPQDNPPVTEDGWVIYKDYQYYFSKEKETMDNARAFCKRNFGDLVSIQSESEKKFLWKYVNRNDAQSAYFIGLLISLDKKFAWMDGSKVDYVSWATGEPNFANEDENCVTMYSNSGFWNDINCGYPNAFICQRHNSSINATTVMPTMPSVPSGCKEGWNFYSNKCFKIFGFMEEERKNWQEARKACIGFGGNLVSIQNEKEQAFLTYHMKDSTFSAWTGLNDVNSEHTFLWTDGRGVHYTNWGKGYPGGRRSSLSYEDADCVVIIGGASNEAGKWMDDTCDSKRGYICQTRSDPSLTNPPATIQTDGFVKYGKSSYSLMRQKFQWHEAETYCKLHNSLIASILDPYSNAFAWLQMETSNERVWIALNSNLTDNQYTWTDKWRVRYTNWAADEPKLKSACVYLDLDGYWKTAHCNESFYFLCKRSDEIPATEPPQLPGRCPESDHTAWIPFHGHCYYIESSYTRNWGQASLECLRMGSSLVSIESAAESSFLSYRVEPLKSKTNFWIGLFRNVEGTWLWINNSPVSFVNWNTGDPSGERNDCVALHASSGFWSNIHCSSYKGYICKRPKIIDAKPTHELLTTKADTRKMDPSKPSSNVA
Description: Sugar competition EIA, MMR.Fc binding to GLPS-F3.

Test [6] deals with T6, CLEC-2 (Homo sapiens, UniProt Q9P126).
T6 construct: The extracellular domains of lectin receptors, TREMs and TLTs were cloned by the reverse-transcriptase polymerase chain reaction (RT-PCR); made in house; host or cells: 293-F (FreeStyle 293) cells
T6 sequence (Q9P126 55-229 limits assumed): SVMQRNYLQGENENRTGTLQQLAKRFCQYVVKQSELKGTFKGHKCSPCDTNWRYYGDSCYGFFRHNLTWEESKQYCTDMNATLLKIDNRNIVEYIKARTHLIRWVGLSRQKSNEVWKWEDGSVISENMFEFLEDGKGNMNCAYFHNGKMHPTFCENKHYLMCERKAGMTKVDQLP
Nature of the test: Sugar competition EIA, Fc.CLEC-2 binding to GLPS-F3. As for the experimental part: as §1, §2

Take β-1,3-glucan [b-glucan]: in test [1], the “Percentage of binding of Dectin-1 Fc fusion to GLPS-F3 relative to binding in absence of sugar competitor” value was 42 ± 0.3%; the “inhibition of interaction between GLPS-F3 and Fc.Dectin-1” value came to 58%. Moreover, the “Percentage of binding of Langerin Fc fusion to GLPS-F3 relative to binding in absence of sugar competitor” value in test [2] turned out to be 77 ± 3.2%. The “Percentage of binding of DC-SIGN Fc fusion to GLPS-F3 relative to binding in absence of sugar competitor” value in test [3] was determined as 81 ± 1.4%. For the same compound, the “Percentage of binding of TLR4.Fc to GLPS-F3 relative to binding in absence of sugar competitor” value in test [4] worked out at 96 ± 4.0%. In test [5], the “Percentage of binding of MMR.Fc to GLPS-F3 relative to binding in absence of sugar competitor” value was 100 ± 4.2%. Further, the “Percentage of binding of CLEC-2 Fc fusion to GLPS-F3 relative to binding in absence of sugar competitor” value in test [6] was determined as 95 ± 5.1%.

Take mannan: the “Percentage of binding of Dectin-1 Fc fusion to GLPS-F3 relative to binding in absence of sugar competitor” value in test [1] came to 82 ± 0.2%. For the same compound, in test [2], the “Percentage of binding of Langerin Fc fusion to GLPS-F3 relative to binding in absence of sugar competitor” value is given as 5 ± 0.9%; the “inhibition of interaction between Fc.Langerin and GLPS-F3” value is reported as 95%. Besides, in test [3], the “Percentage of binding of DC-SIGN Fc fusion to GLPS-F3 relative to binding in absence of sugar competitor” value worked out at 2 ± 0.5% and the “inhibition of binding of Fc.DC-SIGN to GLPS-F3” value was determined as 98%. Moreover, in test [4], the “Percentage of binding of TLR4.Fc to GLPS-F3 relative to binding in absence of sugar competitor” value turned out to be 28 ± 6.3%; the “inhibition of TLR4.Fc and GLPS-F3 interaction” value is reported as 72%. Further, in test [5], the “Percentage of binding of MMR.Fc to GLPS-F3 relative to binding in absence of sugar competitor” value worked out at 2 ± 0.5%; the “inhibition of interaction between GLPS-F3 and MMR.Fc” value amounted to 98%. Also, the “Percentage of binding of CLEC-2 Fc fusion to GLPS-F3 relative to binding in absence of sugar competitor” value in test [6] was 88 ± 6.3%.

With `C[C@H](O)[C@@H](O)[C@@H](O)[C@H](O)C=O` [Fuc, L-fucose], the “Percentage of binding of Dectin-1 Fc fusion to GLPS-F3 relative to binding in absence of sugar competitor” value in test [1] is recorded as 92 ± 5.2%. Moreover, the “Percentage of binding of Langerin Fc fusion to GLPS-F3 relative to binding in absence of sugar competitor” value in test [2] is on record as 76 ± 1.9%. Also, in test [3], the “Percentage of binding of DC-SIGN Fc fusion to GLPS-F3 relative to binding in absence of sugar competitor” value was found to be 8 ± 1.8% and the “inhibition of binding of Fc.DC-SIGN to GLPS-F3” value turned out to be 92%. Further, in test [4], the “Percentage of binding of TLR4.Fc to GLPS-F3 relative to binding in absence of sugar competitor” value is 56 ± 1.9%; the “inhibition of TLR4.Fc and GLPS-F3 interaction” value is reported as 44%. Besides, in test [5], the “Percentage of binding of MMR.Fc to GLPS-F3 relative to binding in absence of sugar competitor” value turned out to be 12 ± 2.0%; the “inhibition of interaction between GLPS-F3 and MMR.Fc” value was 88%. Besides, in test [6], the “Percentage of binding of CLEC-2 Fc fusion to GLPS-F3 relative to binding in absence of sugar competitor” value was found to be 91 ± 8.5%.

The values above are taken from patent US8460669B2, “Compositions and methods for identifying response targets and treating flavivirus infection responses” (Academia Sinica, priority 2005, dated 2013).
